Laboratory results published in publication doi:10.1101/625897v2 (biorxiv, 2019).

What was measured:
Experiment in all cases: inside-out patch clamp, Cl- current stimulation
ANO1 (TMEM16A; mTMEM16A) [1] = target: T1, ANO1 (TMEM16A; mTMEM16A) (Mus musculus, UniProt Q8BHY3); assay type: biochemical; settings: +100 mV, 270 nM Ca2+
T1 sequence (Q8BHY3 1-960): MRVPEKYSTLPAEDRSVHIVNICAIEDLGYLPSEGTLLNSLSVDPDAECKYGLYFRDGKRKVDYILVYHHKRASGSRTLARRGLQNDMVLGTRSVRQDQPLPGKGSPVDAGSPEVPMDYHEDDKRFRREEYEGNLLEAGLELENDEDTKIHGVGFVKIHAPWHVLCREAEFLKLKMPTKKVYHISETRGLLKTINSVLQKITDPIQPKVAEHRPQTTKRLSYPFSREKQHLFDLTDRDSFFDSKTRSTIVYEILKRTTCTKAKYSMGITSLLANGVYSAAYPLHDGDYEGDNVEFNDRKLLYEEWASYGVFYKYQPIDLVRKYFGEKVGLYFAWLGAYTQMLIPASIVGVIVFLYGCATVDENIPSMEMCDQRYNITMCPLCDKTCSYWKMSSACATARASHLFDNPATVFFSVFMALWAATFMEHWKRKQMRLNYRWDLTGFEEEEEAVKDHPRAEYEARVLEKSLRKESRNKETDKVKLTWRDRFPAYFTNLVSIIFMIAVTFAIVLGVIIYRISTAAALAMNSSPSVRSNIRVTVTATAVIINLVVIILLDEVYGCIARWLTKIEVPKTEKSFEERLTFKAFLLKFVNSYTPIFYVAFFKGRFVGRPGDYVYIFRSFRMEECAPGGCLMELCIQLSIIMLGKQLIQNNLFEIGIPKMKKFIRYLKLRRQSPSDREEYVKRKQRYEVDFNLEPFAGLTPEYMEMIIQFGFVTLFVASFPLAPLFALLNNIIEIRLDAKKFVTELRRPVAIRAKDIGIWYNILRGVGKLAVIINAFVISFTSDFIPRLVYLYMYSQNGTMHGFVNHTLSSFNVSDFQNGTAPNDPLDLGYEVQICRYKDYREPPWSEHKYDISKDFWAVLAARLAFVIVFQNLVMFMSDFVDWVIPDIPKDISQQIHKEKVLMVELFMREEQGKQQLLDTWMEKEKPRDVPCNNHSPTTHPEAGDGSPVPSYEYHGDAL

ANO1 (TMEM16A; mTMEM16A) [2] = target: T1, ANO1 (TMEM16A; mTMEM16A); assay type: biochemical; settings: +100 mV, 270 nM Ca2+; wild-type reference of the mutant set
ANO1 (TMEM16A; mTMEM16A) [3] = target: T1, ANO1 (TMEM16A; mTMEM16A); assay type: cell-based

Row | Structure (SMILES) | % current increase at 10 μM (ANO1 (TMEM16A; mTMEM16A) [1]) | ΔIPIP2 (% current increase) at 10 μM (ANO1 (TMEM16A; mTMEM16A) [2]) | EC50 (ANO1 (TMEM16A; mTMEM16A) [3])
1 | CCCCCCCC(=O)OC[C@H](COP(=O)(O)O[C@H]1[C@H](O)[C@@H](OP(=O)(O)O)[C@H](OP(=O)(O)O)[C@@H](OP(=O)(O)O)[C@H]1O)OC(=O)CCCCCCC [diC8-PI(3,4,5)P3] | 31 ± 12% | – | –
2 | CCCCCCCC(=O)OC[C@H](COP(=O)(O)O[C@@H]1[C@H](O)[C@H](O)[C@@H](OP(=O)(O)O)[C@H](OP(=O)(O)O)[C@H]1O)OC(=O)CCCCCCC [diC8-PI(4,5)P2] | – | 89.9 ± 16.8% | 1240 nM
